Patent US20080214606A1, “Methods for the Identification and Use of Compounds Suitable for the Treatment of Drug Resistant Cancer Cells” (The Government of the United States of America as …, priority 2004, published 2008)
Entries after “also recorded” stand apart in the source; their conditions may differ.

Columns and labels:
ABCD3 = target: T1, ABCD3 (Homo sapiens, UniProt P28288); assay: Correlation of ABCD3 expression with drug sensitivity across the NCI-60; format: cell-based; settings: Pearson correlation of ABCD3 expression with sensitivity of the 60 cell lines; 1429 compounds; inverse, p < 0.0001
T1 construct: profiled in 60 diverse cancer cell lines (the NCI-60) using real-time RT-PCR; endogenous in cells; host or cells: NCI-60 human cancer cell lines
T1 sequence (P28288 whole entry): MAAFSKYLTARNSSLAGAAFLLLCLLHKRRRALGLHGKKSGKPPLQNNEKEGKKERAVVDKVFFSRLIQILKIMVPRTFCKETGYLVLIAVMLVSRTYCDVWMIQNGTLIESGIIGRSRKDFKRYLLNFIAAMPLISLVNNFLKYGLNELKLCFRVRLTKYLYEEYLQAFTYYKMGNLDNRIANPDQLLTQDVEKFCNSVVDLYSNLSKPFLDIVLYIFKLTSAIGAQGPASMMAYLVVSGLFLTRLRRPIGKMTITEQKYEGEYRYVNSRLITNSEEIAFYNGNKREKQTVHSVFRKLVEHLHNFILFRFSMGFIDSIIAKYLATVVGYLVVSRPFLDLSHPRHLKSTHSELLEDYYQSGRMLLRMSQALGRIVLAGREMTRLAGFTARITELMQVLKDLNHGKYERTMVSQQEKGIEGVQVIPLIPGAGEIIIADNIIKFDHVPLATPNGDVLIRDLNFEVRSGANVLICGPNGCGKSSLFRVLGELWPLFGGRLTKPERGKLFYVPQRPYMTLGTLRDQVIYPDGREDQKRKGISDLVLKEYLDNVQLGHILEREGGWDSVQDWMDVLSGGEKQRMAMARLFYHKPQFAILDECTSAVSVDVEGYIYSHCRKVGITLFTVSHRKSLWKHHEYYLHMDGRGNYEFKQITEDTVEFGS
Protocol: (§2) Expression levels are measured by real-time quantitative RT-PCR using the LightCycler RNA Amplification SYBR Green kit and a LightCycler machine (Roche Biochemicals, Indianapolis, Ind.). Specific oligonucleotide probes are designed for each of the ABC transporters using DNAStar Primer Select (DNASTAR Inc.), and they may be synthesized at Lofstrand Laboratories (Gaithersburg, Md.). When possible, the amplicons are designed to encompass exon-intron boundaries to avoid amplification of genomic DNA. Since the Syber Green assay detects accumulation of double stranded DNA, primers are selected (from a battery consisting of about 200 primers) that amplified a single product of the correct size. […]
(§3) During PCR amplification, fluorescence emission is measured and recorded in real time by the LightCycler. Crossing point values are calculated, using the LightCycler software package, by the Fit Points analysis method, with baseline fluorescence set at 1. The SyberGreen assay measures accumulation of double-stranded products, and the appearance of primer dimers limits quantitation at high cycle numbers. […] The raw results are expressed as number of cycles to reach the crossing point. If the desired product is not detected, the corresponding value is adjusted to crossing points indicating no expression. To assess the contribution of experimental artifacts, selected cell lines are assessed in replicate. […]

ABCB2 = target: T2, ABCB2 (Homo sapiens, UniProt Q03518); assay: Correlation of ABCB2 expression with drug sensitivity across the NCI-60; format: cell-based; settings: Pearson correlation of ABCB2 expression with sensitivity of the 60 cell lines; 1429 compounds; inverse, p < 0.0001
T2 construct: profiled in 60 diverse cancer cell lines (the NCI-60) using real-time RT-PCR; endogenous in cells; host or cells: NCI-60 human cancer cell lines
Protocol: as §2, §3

[1] = tested on: KB Hela cells expressing ABCB1(MDR1) under tetracycline control; assay: MTT assay using HeLa-transfectants with human MDR1 under tetracycline control; format: cell-based; settings: absence (On) or presence (Off) of 2 μg/ml tetracycline
Protocol: Panel A is a scatter plot showing positive correlation (r=+0.54; 95% confidence interval 0.259 to 0.713) of ABCB1 expression with sensitivity of the 60 cell lines to NSC 73306. […] Cells are grown in the absence (ABCB1(MDR1)-On) or presence (ABCB1(MDR1)-Off) of 2 μg/ml tetracycline for at least seven days before starting the MTT assay. Cell surface expression and function of ABCB1 (MDR1) are verified prior to the assay by staining with anti-MDR1 monoclonal antibody (MRK-16) and by a performing a functional assay based on MDR1-controlled accumulation of the fluorescent dye Calcein (Homolya et al., 1996, Br. J. Cancer 73:849-855). […] Values are means ±S.E. of triplicate measurements.
Cell survival is measured by the MTT (3-(4,5-Dimethylthiazol-2-yl)-2,5-diphenyltetrazolium) Assay. Cells are seeded in 100 μl medium at a density of 5000 cells/well in 96 well plates, and serially diluted drug (with or without 2 μM PSC 833) is added the following day in 100 μl medium to give the indicated final concentration. Cells are then incubated for 72 hrs at 37° C. in 5% CO2, and the MTT assay is performed according to the manufacturer's instructions (Molecular Probes, Eugene, Oreg.). […]

MDR1 = MDR1 (Homo sapiens, UniProt P08183); assay: Block of MDR1-mediated transport of other molecules; format: cell-based
[2] = tested on: KB-V1 cells (over-express MDR1-P-gp) vs parental KB-3-1 cells; assay: MTT assay using the KB-3-1/KB-V1 cell pair; format: cell-based, human
Protocol: (§1) Cell survival is measured by the MTT (3-(4,5-Dimethylthiazol-2-yl)-2,5-diphenyltetrazolium) Assay. Cells are seeded in 100 μl medium at a density of 5000 cells/well in 96 well plates, and serially diluted drug (with or without 2 μM PSC 833) is added the following day in 100 μl medium to give the indicated final concentration. Cells are then incubated for 72 hrs at 37° C. in 5% CO2, and the MTT assay is performed according to the manufacturer's instructions (Molecular Probes, Eugene, Oreg.).
To test whether our approach using the NCI-60 does, in fact, identify new substrates, an MTT assay is used to test all top-scoring compounds that were available from DTP for follow-up experiments. KB-3-1, a human carcinoma cell line, and KB-V1, a multidrug resistant derivative of KB-3-1 that over-expresses MDR1-P-gp (Shen et al., 1986, J. Biol. Chem. 261:7762-7770), are used for the tests. […] This resistance of KB-V-1 cells is invariably reversible by PSC 833. The intrinsic fluorescence of one of the compounds, NSC 634791, allows for the measurement of the effect of MDR1 activity on its export from cells.

ABCB1 = ABCB1 (Homo sapiens, UniProt P08183); assay: Correlation of ABCB1 expression with drug sensitivity across the NCI-60
ABCB1, sequence (P08183 whole entry): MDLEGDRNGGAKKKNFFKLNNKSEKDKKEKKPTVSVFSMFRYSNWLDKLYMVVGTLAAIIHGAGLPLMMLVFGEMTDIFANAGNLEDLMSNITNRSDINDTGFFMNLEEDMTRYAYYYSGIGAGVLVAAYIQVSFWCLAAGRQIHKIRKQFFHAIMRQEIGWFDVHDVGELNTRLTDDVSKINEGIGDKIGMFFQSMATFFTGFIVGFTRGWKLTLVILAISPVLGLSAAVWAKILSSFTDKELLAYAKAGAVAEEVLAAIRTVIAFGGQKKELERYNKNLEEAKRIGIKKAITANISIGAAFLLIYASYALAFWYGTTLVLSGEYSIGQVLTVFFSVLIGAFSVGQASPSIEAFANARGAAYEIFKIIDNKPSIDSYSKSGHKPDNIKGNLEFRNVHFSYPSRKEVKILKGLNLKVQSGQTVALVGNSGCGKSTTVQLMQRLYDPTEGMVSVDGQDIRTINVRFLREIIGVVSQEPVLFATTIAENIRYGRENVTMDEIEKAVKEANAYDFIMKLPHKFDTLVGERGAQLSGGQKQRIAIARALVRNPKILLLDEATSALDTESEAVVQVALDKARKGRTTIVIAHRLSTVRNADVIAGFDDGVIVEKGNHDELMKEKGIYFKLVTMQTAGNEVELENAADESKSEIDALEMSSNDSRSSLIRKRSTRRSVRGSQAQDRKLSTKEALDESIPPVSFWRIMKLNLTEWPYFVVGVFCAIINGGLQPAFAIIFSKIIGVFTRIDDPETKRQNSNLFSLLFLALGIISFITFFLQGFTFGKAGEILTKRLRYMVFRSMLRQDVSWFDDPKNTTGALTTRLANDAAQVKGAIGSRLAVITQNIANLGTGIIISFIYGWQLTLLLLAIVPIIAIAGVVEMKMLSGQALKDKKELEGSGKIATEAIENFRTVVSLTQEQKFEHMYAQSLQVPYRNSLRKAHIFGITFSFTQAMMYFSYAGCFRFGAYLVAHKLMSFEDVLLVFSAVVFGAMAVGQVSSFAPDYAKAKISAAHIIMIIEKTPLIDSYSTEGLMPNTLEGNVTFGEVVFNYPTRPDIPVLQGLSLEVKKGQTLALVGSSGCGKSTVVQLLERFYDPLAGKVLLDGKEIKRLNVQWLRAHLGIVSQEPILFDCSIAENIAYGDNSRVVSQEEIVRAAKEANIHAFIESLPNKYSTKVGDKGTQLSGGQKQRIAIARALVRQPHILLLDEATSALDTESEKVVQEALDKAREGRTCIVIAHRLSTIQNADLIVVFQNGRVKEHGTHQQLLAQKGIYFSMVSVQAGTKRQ
Method in brief: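 SYBR Green real-time RT-PCR on 150 ng total RNA with 250 nM primers: RT 20 min at 50 °C, then 45 cycles; expression taken as crossing-point cycle number. Correlated with drug sensitivity of 1429 compounds across the cell panel; permutation p-values with step-down and step-up (FDR q-value) multiple-testing correction.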

ABCD1 = target: T3, ABCD1 (Homo sapiens, UniProt P33897); assay: Correlation of ABCD1 expression with drug sensitivity across the NCI-60; format: cell-based; settings: Pearson correlation of ABCD1 expression with sensitivity of the 60 cell lines; 1429 compounds; inverse, p < 0.0001
T3 construct: profiled in 60 diverse cancer cell lines (the NCI-60) using real-time RT-PCR; endogenous in cells; host or cells: NCI-60 human cancer cell lines
T3 sequence (P33897 whole entry): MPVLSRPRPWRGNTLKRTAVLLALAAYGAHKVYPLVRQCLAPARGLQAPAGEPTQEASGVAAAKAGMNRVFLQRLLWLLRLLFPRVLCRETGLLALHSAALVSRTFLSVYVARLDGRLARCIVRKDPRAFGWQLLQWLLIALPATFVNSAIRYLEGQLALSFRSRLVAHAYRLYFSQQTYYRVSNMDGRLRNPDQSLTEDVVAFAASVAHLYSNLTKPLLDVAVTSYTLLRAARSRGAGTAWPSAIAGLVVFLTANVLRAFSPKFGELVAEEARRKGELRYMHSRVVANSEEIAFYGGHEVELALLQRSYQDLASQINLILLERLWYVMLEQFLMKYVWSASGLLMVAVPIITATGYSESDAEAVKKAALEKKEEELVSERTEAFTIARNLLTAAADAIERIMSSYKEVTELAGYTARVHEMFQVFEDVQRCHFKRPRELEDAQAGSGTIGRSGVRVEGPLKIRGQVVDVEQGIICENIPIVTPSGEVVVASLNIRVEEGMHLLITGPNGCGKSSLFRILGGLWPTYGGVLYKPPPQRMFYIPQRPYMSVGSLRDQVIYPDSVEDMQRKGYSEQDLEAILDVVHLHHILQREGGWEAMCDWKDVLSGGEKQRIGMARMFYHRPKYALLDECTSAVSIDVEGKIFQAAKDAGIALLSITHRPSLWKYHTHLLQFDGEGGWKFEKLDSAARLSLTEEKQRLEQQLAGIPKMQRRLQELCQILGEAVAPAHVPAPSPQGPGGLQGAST
Protocol: (§4) Expression levels are measured by real-time quantitative RT-PCR using the LightCycler RNA Amplification SYBR Green kit and a LightCycler machine (Roche Biochemicals, Indianapolis, Ind.). […] When possible, the amplicons are designed to encompass exon-intron boundaries to avoid amplification of genomic DNA. Since the Syber Green assay detects accumulation of double stranded DNA, primers are selected (from a battery consisting of about 200 primers) that amplified a single product of the correct size.
RT-PCR is carried out on 150 ng total RNA, in the presence of 250 nM specific primers. Following reverse transcription (20 min at 50° C.), the PCR reaction consists of 45 cycles of denaturation (15 sec at 95° C.), annealing (30 sec at 58° C.), and elongation (30 sec at 72° C.). No-template (water) reaction mixtures are prepared as negative controls.
During PCR amplification, fluorescence emission is measured and recorded in real time by the LightCycler. Crossing point values are calculated, using the LightCycler software package, by the Fit Points analysis method, with baseline fluorescence set at 1. The SyberGreen assay measures accumulation of double-stranded products, and the appearance of primer dimers limits quantitation at high cycle numbers. The specificity of amplified products is verified by melting-curve analysis and agarose gel electrophoresis (not shown). The raw results are expressed as number of cycles to reach the crossing point. If the desired product is not detected, the corresponding value is adjusted to crossing points indicating no expression. To assess the contribution of experimental artifacts, selected cell lines are assessed in replicate.
The two are combined to form a joint dataset that includes 1429 compounds.
To determine quantitatively how well the 47 genes cluster the cell lines by their tissues of origin, a statistical method is employed wherein the kappa statistic is used to indicate how well the observed clusters correspond to the nine tissue-of-origin classifications. […] To control the overall false type 1 error rate, both a step-down procedure (Westfall and Young, 1993, Resampling-Based Multiple Testing: Examples and Methods for p-value Adjustment (New York: Wiley)) and a step-up procedure (Reiner et al., 2003, Bioinformatics 19:368-375) were employed to adjust for multiple testing of all 47 genes simultaneously. In the Benjamini-Hochberg procedure the p-values are computed in the standard way by permutation, assuming that all distributions are exchangeable: the number of values in the permuted data with correlations over a threshold, divided by the number of compounds and by the number of permutations. In this analysis, the False Discovery Rate (q-value) at which each compound would be declared was calculated using the step-up procedure for positively correlated test statistics (again true because all correlations being compared are computed against the same ABC gene): in this procedure the first q-value for the largest correlation is the Bonferroni-corrected p-value for that gene; then further q-values are calculated as qj=max(pj*1429/j, qj-1). This procedure limits the expected proportion of false positives in the list 1, . . . , j to at most qj.

MDR1 positive cells = assay: Pretreatment of MDR1 positive cells with MDR1-potentiated compound (loss of MDR phenotype); format: cell-based
Text: In another preferred embodiment, the invention relates to methods of inhibiting the development of a multidrug resistance phenotype in a cancer in a subject comprising administering an ABCB1 potentiated agent to the subject. As used herein, inhibiting the development of a multidrug resistant phenotype refers to both the inhibition of the initial onset of the phenotype or the inhibition of any further development of the multidrug phenotype. It is contemplated as part of the invention that the ABCB1 potentiated agent may be administered simultaneously with a chemotherapeutic agent that is a substrate of the ABCB1 transporter. It is understood as an aspect of the invention that such simultaneous administration refers to administration within the same general time period rather than at the same exact moment in time. Thus treatment with the ABCB1 potentiated compound and the chemotherapeutic agent may be on the same day or on different days, or in the same week or in different weeks. It is within the skill of the ordinary artisan to optimize a treatment schedule to maintain the therapeutic efficacy of the chemotherapeutic agent by administration of the ABCB1 potentiated compound to inhibit the development of drug resistance. MDR1-potentiated compounds may be used to prevent the emergence of drug resistance clones. […]

ABCD4 = target: T4, ABCD4 (Homo sapiens, UniProt O14678); assay: Correlation of ABCD4 expression with drug sensitivity across the NCI-60; format: cell-based; settings: Pearson correlation of ABCD4 expression with sensitivity of the 60 cell lines; 1429 compounds; inverse, p < 0.0001
T4 construct: profiled in 60 diverse cancer cell lines (the NCI-60) using real-time RT-PCR; endogenous in cells; host or cells: NCI-60 human cancer cell lines
Protocol: as §2, §3

ABCF1 = target: T5, ABCF1 (Homo sapiens, UniProt Q8NE71); assay: Correlation of ABCF1 expression with drug sensitivity across the NCI-60; format: cell-based; settings: Pearson correlation of ABCF1 expression with sensitivity of the 60 cell lines; 1429 compounds; inverse, p < 0.0001
T5 construct: endogenous in cells; host or cells: NCI-60 human cancer cell lines
T5 sequence (Q8NE71 whole entry): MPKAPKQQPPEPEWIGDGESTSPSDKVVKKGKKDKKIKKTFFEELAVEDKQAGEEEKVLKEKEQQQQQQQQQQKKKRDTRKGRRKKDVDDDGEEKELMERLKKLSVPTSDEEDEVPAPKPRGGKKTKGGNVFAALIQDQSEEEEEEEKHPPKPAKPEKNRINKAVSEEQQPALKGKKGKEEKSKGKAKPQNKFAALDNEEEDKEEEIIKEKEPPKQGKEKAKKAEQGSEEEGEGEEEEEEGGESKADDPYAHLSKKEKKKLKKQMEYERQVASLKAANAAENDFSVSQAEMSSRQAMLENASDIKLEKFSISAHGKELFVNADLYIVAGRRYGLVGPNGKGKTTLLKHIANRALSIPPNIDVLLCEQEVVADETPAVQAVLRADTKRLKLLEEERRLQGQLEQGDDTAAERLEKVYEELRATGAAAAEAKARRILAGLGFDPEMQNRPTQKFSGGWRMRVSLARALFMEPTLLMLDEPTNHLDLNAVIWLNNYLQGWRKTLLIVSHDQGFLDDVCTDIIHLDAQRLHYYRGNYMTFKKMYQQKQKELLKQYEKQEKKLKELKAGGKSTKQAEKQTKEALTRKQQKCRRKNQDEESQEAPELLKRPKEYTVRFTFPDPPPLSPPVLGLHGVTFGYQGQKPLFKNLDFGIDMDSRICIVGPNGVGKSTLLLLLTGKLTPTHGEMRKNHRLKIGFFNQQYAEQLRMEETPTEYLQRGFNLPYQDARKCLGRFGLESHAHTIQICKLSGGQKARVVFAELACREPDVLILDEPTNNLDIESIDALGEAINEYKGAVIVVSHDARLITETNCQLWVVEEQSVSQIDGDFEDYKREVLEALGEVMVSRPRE
Protocol: as §2, §3

ABCG8 = target: T6, ABCG8 (Homo sapiens, UniProt Q9H221); assay: Correlation of ABCG8 expression with drug sensitivity across the NCI-60; format: cell-based; settings: Pearson correlation of ABCG8 expression with sensitivity of the 60 cell lines; 1429 compounds; inverse, p < 0.0001
T6 construct: endogenous in cells; host or cells: NCI-60 human cancer cell lines
Protocol: as §2, §3

ABCC4 = target: T7, ABCC4 (Homo sapiens, UniProt O15439); assay: Correlation of ABCC4 expression with drug sensitivity across the NCI-60; format: cell-based; settings: Pearson correlation of ABCC4 expression with sensitivity of the 60 cell lines; 1429 compounds; inverse, p < 0.0001
T7 construct: profiled in 60 diverse cancer cell lines (the NCI-60) using real-time RT-PCR; endogenous in cells; host or cells: NCI-60 human cancer cell lines
T7 sequence (O15439 whole entry): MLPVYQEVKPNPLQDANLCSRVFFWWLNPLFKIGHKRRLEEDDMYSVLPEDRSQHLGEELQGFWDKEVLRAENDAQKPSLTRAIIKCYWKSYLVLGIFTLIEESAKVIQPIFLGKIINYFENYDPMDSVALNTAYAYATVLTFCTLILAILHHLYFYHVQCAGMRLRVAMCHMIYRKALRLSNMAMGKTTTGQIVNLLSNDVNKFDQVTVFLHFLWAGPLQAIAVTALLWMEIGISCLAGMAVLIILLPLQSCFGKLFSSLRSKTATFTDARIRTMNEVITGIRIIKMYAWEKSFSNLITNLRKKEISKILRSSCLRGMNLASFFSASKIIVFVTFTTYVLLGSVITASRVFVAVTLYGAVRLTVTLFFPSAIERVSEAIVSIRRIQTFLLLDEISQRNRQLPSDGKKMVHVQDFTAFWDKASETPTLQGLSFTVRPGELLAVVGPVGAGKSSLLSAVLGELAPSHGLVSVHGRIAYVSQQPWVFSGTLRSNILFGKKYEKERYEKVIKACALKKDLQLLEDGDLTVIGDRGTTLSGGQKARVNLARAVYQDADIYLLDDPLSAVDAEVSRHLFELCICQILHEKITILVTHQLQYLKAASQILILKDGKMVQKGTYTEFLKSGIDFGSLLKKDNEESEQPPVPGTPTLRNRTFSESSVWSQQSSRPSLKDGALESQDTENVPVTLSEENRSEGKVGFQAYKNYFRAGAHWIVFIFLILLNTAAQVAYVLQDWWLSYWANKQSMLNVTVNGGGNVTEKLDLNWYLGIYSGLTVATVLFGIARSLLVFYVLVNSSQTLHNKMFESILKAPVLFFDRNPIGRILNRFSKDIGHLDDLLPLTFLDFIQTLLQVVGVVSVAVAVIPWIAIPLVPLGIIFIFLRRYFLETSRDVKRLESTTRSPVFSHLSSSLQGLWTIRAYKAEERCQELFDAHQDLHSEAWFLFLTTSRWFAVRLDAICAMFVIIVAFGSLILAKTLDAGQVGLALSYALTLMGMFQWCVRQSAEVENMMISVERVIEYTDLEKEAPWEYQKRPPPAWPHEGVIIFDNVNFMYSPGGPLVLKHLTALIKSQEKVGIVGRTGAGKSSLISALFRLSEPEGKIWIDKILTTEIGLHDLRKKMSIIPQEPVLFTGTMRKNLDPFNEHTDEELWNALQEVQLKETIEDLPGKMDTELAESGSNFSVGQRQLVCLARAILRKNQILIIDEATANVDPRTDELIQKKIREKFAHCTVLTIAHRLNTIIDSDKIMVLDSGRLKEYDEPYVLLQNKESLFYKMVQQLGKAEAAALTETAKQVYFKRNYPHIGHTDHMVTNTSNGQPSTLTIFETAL
Protocol: as §4
(§5) RT-PCR is carried out on 150 ng total RNA, in the presence of 250 nM specific primers. […]
as §3

ABCC9 = target: T8, ABCC9 (Homo sapiens, UniProt O60706); assay: Correlation of ABCC9 expression with drug sensitivity across the NCI-60; format: cell-based; settings: Pearson correlation of ABCC9 expression with sensitivity of the 60 cell lines; 1429 compounds; inverse, p < 0.0001
T8 construct: profiled in 60 diverse cancer cell lines (the NCI-60) using real-time RT-PCR; endogenous in cells; host or cells: NCI-60 human cancer cell lines
Protocol: as §4, §5, §3

ABCB3 = target: T9, ABCB3 (Homo sapiens, UniProt Q03519); assay: Correlation of ABCB3 expression with drug sensitivity across the NCI-60; format: cell-based; settings: Pearson correlation of ABCB3 expression with sensitivity of the 60 cell lines; 1429 compounds; inverse, p < 0.0001
T9 construct: profiled in 60 diverse cancer cell lines (the NCI-60) using real-time RT-PCR; endogenous in cells; host or cells: NCI-60 human cancer cell lines
Protocol: as §4, §5
During PCR amplification, fluorescence emission is measured and recorded in real time by the LightCycler. Crossing point values are calculated, using the LightCycler software package, by the Fit Points analysis method, with baseline fluorescence set at 1. The SyberGreen assay measures accumulation of double-stranded products, and the appearance of primer dimers limits quantitation at high cycle numbers. […] The raw results are expressed as number of cycles to reach the crossing point. If the desired product is not detected, the corresponding value is adjusted to crossing points indicating no expression. To assess the contribution of experimental artifacts, selected cell lines are assessed in replicate.

ABCC8 = target: T10, ABCC8 (Homo sapiens, UniProt Q09428); assay: Correlation of ABCC8 expression with drug sensitivity across the NCI-60; format: cell-based; settings: Pearson correlation of ABCC8 expression with sensitivity of the 60 cell lines; 1429 compounds; inverse, p < 0.0001
T10 construct: profiled in 60 diverse cancer cell lines (the NCI-60) using real-time RT-PCR; endogenous in cells; host or cells: NCI-60 human cancer cell lines
Protocol: as §4, §5, §3

ABCC11 = target: T11, ABCC11 (Homo sapiens, UniProt Q96J66); assay: Correlation of ABCC11 expression with drug sensitivity across the NCI-60; format: cell-based; settings: after removal of the single, high-expressing cell line (T47D)
T11 construct: profiled in 60 diverse cancer cell lines (the NCI-60) using real-time RT-PCR; endogenous in cells; host or cells: NCI-60 human cancer cell lines
Protocol: as §4, §5, §3

[3] = tested on: ABCC11-transfected LLC-PK1 cells; assay: MTT assay, ABCC11-transfected vs sham-transfected LLC-PK1 cells; format: cell-based
Protocol: Panel A is a scatter plot showing the correlation (r) of ABCC11 expression with sensitivity of the 60 cells to NSC 671136 (r=−0.4; 99.99% two-tailed bootstrap confidence interval −0.6726 to −0.0141). […] Values are means ±S.E. of triplicate MTT assays.
as §1
One compound, NSC 671136 (shown in FIG. 5, Panel C), met the stringent bootstrap criterion for significant inverse correlation with the expression of ABCC11 in the 60 cell lines (FIG. 5, Panel A). An MTT assay was used to assess whether over-expression of ABCC11 can confer resistance to the NSC 671136 compound.

ABCA2 = target: T12, ABCA2 (Homo sapiens, UniProt Q9BZC7); assay: Correlation of ABCA2 expression with drug sensitivity across the NCI-60; format: cell-based; settings: Pearson correlation of ABCA2 expression with sensitivity of the 60 cell lines; 1429 compounds; inverse, p < 0.0001
T12 construct: profiled in 60 diverse cancer cell lines (the NCI-60) using real-time RT-PCR; endogenous in cells; host or cells: NCI-60 human cancer cell lines
Protocol: as §4, §5, §3

O=c1[nH]cc(F)c(=O)[nH]1 [NSC 19893]
Correlation (ABCD3): −0.4232

CC(C)C1=CC2=CC[C@@H]3[C@](C)(CCC[C@@]3(C)C(=O)O)[C@H]2CC1 [NSC 25149]
Correlation (ABCB2): −0.3794

COc1ccc(NC(=S)N/N=C2\C(=O)Nc3c(Cl)cc(Cl)cc32)cc1 [NSC 73306]
Sensitivity of MDR1-On cells relative to MDR1-Off cells [1]: two- to four-fold; also recorded: approximately two-fold
Block of MDR1-mediated transport of other molecules (MDR1): does not block
Effect of PSC 833 on the heightened sensitivity of KB-V1 cells ([2]; MTT assay with 2 μM PSC 833): completely reversed sensitivity; also recorded: completely abolished the heightened sensitivity
Sensitivity of KB-V1 cells relative to parental KB-3-1 (potentiation by ABCB1) ([2]; MTT assay, 72 hrs): four- to five-fold; also recorded: approximately four-fold
Correlation of antiproliferative activity with ABCB1 expression (ABCB1): 0.511
Correlation (ABCD1): −0.6029
Drug sensitivity for non-MDR1 substrates after pretreatment (MDR1 positive cells; non-MDR1 substrates such as cisplatin and methotrexate): unchanged
Drug resistance to MDR1 substrates after pretreatment (MDR1 positive cells; pretreatment of MDR1 positive cells): almost complete elimination of drug resistance

CC(=O)OC(C)(C)/C=C/C(=O)[C@](C)(O)[C@H]1[C@H](O)C[C@@]2(C)[C@@H]3CC=C4[C@@H](C=C(O)C(=O)C4(C)C)[C@]3(C)C(=O)C[C@]12C [NSC 106399]
Correlation (ABCD4): −0.4232
Pearson's Correlation Coeff (ABCB1): 0.1871

N[C@H](C(=O)O)[C@@H]1CC(Cl)=NO1 [NSC 163501]
Pearson's Correlation Coeff (ABCB1): 0.2122
Correlation (ABCD1): −0.4301
Correlation (ABCF1): −0.5274

C=C1[C@@H](C)[C@H]2[C@H](Cc3ccccc3)NC(=O)[C@]23[C@H](OC(C)=O)/C=C/[C@@](C)(O)C(=O)[C@@H](C)C/C=C/[C@H]3[C@@H]1O [NSC 209835]
Correlation (ABCG8): −0.4443

CSCSCC(CO)NC(=O)/C=C\c1c(C)[nH]c(=O)[nH]c1=O (centres unmarked) [NSC 251820]
Correlation (ABCC4): −0.4340

COc1cc2c(c(OC)c1OC)-c1cccc(=O)cc1C(NC(C)=O)CC2 (centres unmarked) [NSC 352277]
Correlation (ABCC9): −0.3094

CS(=O)(=O)c1cc(=O)c2ccccc2s1 [NSC 622282]
Correlation (ABCB3): −0.4406

COc1cc2[nH]c3c(c2cc1OC)CCN[C@@]31CC[C@@]2(CC3c4c(cc(OC)c(O)c42)CCN3C)C[C@@H]1OC (some centres unmarked) [NSC 626578]
Correlation (ABCC8): −0.4335

CC(=O)c1sc2c(c1OC(=O)c1ccc(Cl)cc1Cl)c(=O)n(-c1ccccc1)c(=S)n2-c1ccccc1 [NSC 671136]
Correlation (r) of ABCC11 expression with sensitivity (ABCC11): −0.38
Resistance of ABCC11-transfected LLC-PK1 cells relative to sham-transfected cells [3]: two- to three-fold

O=C1c2cccc3cc([N+](=O)[O-])cc(c23)C(=O)N1Nc1ccc([N+](=O)[O-])cc1[N+](=O)[O-] [NSC 679265]
Correlation (ABCA2): −0.3298
